Values joined by “and” are separate entries in the source; they are usually repeats but may differ in a detail not shown here. Identical values can stand only once.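 Dose response: 5 concentrations. Exposure: 48 h. Format: 96-well plates. Endpoint: linear interpolation; highest concentration if not reached. The concentration for 50% growth inhibition is given as GI50. The concentration for full growth arrest is given as TGI.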
Key:
Assay in all cases: NCI anticancer screen, dose series, 48 h
TK-10 renal = system: TK-10 renal
NCI-H226 lung = system: NCI-H226 lung
SF-539 CNS = system: SF-539 CNS
EKVX NSCLC = system: EKVX NSCLC
MALME-3M melanoma = system: MALME-3M melanoma
MOLT-4 leukemia = system: MOLT-4 leukemia
A498 renal = system: A498 renal
ACHN renal = system: ACHN renal
PC-3 prostate = system: PC-3 prostate
MDA-MB-231 breast = system: MDA-MB-231 breast

SMILES	GI50 (TK-10 renal)	TGI (TK-10 renal)	GI50 (NCI-H226 lung)	TGI (NCI-H226 lung)	GI50 (SF-539 CNS)	TGI (SF-539 CNS)	GI50 (EKVX NSCLC)	TGI (EKVX NSCLC)	GI50 (MALME-3M melanoma)	TGI (MALME-3M melanoma)	TGI (MOLT-4 leukemia)	TGI (A498 renal)	TGI (ACHN renal)	GI50 (MOLT-4 leukemia)	GI50 (PC-3 prostate)	TGI (PC-3 prostate)	GI50 (MDA-MB-231 breast)	TGI (MDA-MB-231 breast)	GI50 (A498 renal)	GI50 (ACHN renal)
C1COCCN1.C1COCCN1.N.N.[Cl-].[Pt+2]	> 100 µM	> 100 µM	> 100 µM	> 100 µM	> 100 µM	> 100 µM	> 100 µM	> 100 µM	> 100 µM	> 100 µM	–	–	–	–	–	–	–	–	–	–
CC(=O)OC1=C2CC3(C)OC(=O)CC(C)(C)C3=CC=C2C=C(C(C)C)C1=O (configuration not stated)	–	2.51 µM	–	3.26 µM	–	–	–	3.57 µM	–	1.17 µM	0.756 µM	2.99 µM	1.76 µM	–	–	–	–	–	–	–
O=c1[nH]c2ccccc2cc1C(Cl)=C(Cl)Cl	–	> 100 µM	–	> 100 µM	–	> 100 µM	–	> 100 µM	–	> 100 µM	> 100 µM	> 100 µM	> 100 µM	–	–	–	–	–	–	–
CCCCCCCCCCCCCCCC(=O)NCC(COP(=O)([O-])OCC[N+](C)(C)C)OCC (configuration not stated)	–	3.95 µM	–	13.6 µM	–	29.8 µM	–	36.5 µM	–	30.8 µM	10.1 µM	–	29.1 µM	–	–	–	–	–	–	–
CN(C)/C(=N/C(=S)Nc1ccccc1)SCc1ccccc1	–	> 100 µM	–	> 100 µM	–	> 100 µM	–	> 100 µM	–	> 100 µM	> 100 µM	> 100 µM	> 100 µM	–	–	–	–	–	–	–
COc1cc2c3c(cccc3c1)C(=O)N(CCN1CCCC1)C2=O	24.8 µM	> 100 µM	–	–	1.98 µM	5.14 µM	–	–	1.88 µM	4.1 µM	> 100 µM	3.69 µM	> 100 µM	3.09 µM	2.91 µM	11.9 µM	2.46 µM	10.2 µM	1.96 µM	0.764 µM
C=C1C(O)C2CCC(C)(C)C(=O)C2=C(CC(C)C)C12CC2 (configuration not stated)	67.9 µM	> 100 µM	43.5 µM	> 100 µM	70.7 µM	> 100 µM	78.7 µM	> 100 µM	35.6 µM	> 100 µM	> 100 µM	–	> 100 µM	33.1 µM	33.2 µM	> 100 µM	91.8 µM	> 100 µM	–	39.3 µM
CCOC(=O)CC1=Nc2ccccc2SC1	–	> 100 µM	–	> 100 µM	–	> 100 µM	–	> 100 µM	–	> 100 µM	> 100 µM	> 100 µM	> 100 µM	–	–	–	–	–	–	–
N#CC1(c2nc3ccccc3o2)C(=O)C(=O)N(C2C3CC4CC(C3)CC2C4)C(=O)C1=O (configuration not stated)	–	> 100 µM	–	> 100 µM	–	> 100 µM	–	> 100 µM	–	> 100 µM	> 100 µM	> 100 µM	> 100 µM	–	–	–	–	–	–	–
COc1c(C2CC(=O)Nc3c2cnn3Cc2ccco2)cc2c(c1OC)OCO2 (configuration not stated)	11.3 µM	> 100 µM	3.85 µM	> 100 µM	0.434 µM	4.36 µM	–	–	0.441 µM	> 100 µM	> 100 µM	0.932 µM	> 100 µM	0.615 µM	0.559 µM	> 100 µM	1.67 µM	> 26.4 µM	0.21 µM	0.833 µM
O=C(Nc1nc2ccccc2s1)OCC(F)(F)F	> 100 µM	> 100 µM	> 100 µM	> 100 µM	> 100 µM	> 100 µM	–	–	> 100 µM	> 100 µM	> 100 µM	> 100 µM	> 100 µM	> 100 µM	> 100 µM	> 100 µM	> 100 µM	> 100 µM	> 100 µM	> 100 µM
COc1ccc(/C=C/C=C(/C#N)C(N)=S)cc1	37.6 µM	> 100 µM	55.7 µM	> 100 µM	34.8 µM	> 100 µM	77.3 µM	> 100 µM	26.9 µM	99.4 µM	–	56.5 µM	49.9 µM	–	–	–	26.9 µM	87.4 µM	25.1 µM	24.6 µM
C=CCSC[C@H](NC(=O)COc1ccccc1)C(=O)NC(C(=O)OCc1ccc([N+](=O)[O-])cc1)=C(C)C	–	–	–	> 100 µM	–	–	–	> 100 µM	–	> 100 µM	88.1 µM	> 100 µM	> 100 µM	–	–	–	–	–	–	–
CC(=O)[CH-]C(=O)c1ccccc1.CC(=O)[CH-]C(=O)c1ccccc1.CCCCCCCCCCCCCCCCCC(=O)[O-].CCCCCCCCCCCCCCCCCC(=O)[O-].[Ti+4]	34.8 µM	99.1 µM	14.5 µM	34.3 µM	17.2 µM	31.3 µM	74.2 µM	> 100 µM	36.7 µM	> 100 µM	62 µM	68.5 µM	–	21.7 µM	–	–	–	–	25.7 µM	–
CSC1=NC=CCN1C	–	> 100 µM	–	> 100 µM	–	–	–	> 100 µM	–	> 100 µM	> 100 µM	> 100 µM	> 100 µM	–	–	–	–	–	–	–
CCCCCCCCCCCCCC(=S)NCCCC[C@H](NC(=O)OCc1ccccc1)C(=O)Nc1ccccc1	4.4 µM	> 100 µM	5.71 µM	> 100 µM	10.7 µM	> 100 µM	–	–	7.41 µM	> 100 µM	> 100 µM	> 100 µM	19.7 µM	3.91 µM	2.58 µM	> 100 µM	5.53 µM	> 100 µM	3.75 µM	3.15 µM
N#Cc1c(-c2cccs2)c2c(=S)[nH]c(=S)[nH]c2[nH]c1=S	90.7 µM	> 100 µM	37.2 µM	> 100 µM	22 µM	48.1 µM	20 µM	60.8 µM	–	–	42.7 µM	–	67.6 µM	14.3 µM	30.8 µM	> 100 µM	39 µM	> 100 µM	–	23.8 µM
COc1cc2c(c3c1C=CCO3)C(=O)c1ccccc1C2=O	–	> 100 µM	–	97.8 µM	–	> 100 µM	–	> 100 µM	–	> 100 µM	79.2 µM	–	> 100 µM	–	–	–	–	–	–	–
CC1(C)N=C(N)N=C(N)N1c1ccc(CCCCc2ccc(S(=O)(=O)F)cc2)cc1	1.14 µM	17.6 µM	1.99 µM	33.2 µM	0.458 µM	11.6 µM	–	–	12.2 µM	32.4 µM	24.3 µM	87.6 µM	> 100 µM	1.41 µM	0.094 µM	23.5 µM	3.53 µM	25 µM	3.81 µM	4.68 µM
COc1ccc2cc1Oc1ccc(cc1)C[C@H]1c3cc(c(OC)cc3CCN1C)Oc1c(OC)c(OC)cc3c1[C@H](C2)N(C)CC3	12.7 µM	15.6 µM and 25.2 µM and 53.5 µM	–	–	2.03 µM	–	–	–	–	–	–	13.2 µM and 19.2 µM and > 100 µM	15.4 µM and 27.2 µM and 40 µM	–	–	–	2.19 µM	–	5.98 µM	–
O=C(/C=C/c1ccc(Cl)cc1)c1ccc(Cl)cc1Cl	7.42 µM	14 µM	9.41 µM	18.1 µM	9.68 µM	17.9 µM	9.33 µM	19.7 µM	–	–	2.12 µM	–	10.9 µM	0.915 µM	11.2 µM	31.7 µM	10.9 µM	22.1 µM	–	0.213 µM
FC(F)(F)c1nc(-c2ccccc2Cl)[nH]c1C(F)(F)F	–	14.5 µM	–	3.54 µM	–	4.48 µM	–	2.25 µM	–	2.75 µM	> 29.5 µM	–	2.65 µM	–	–	–	–	–	–	–
O=[N+]([O-])[C@@H]1C2C=CC(C2)[C@H]1Cl (some centres not stated)	–	> 100 µM	–	–	–	> 100 µM	–	> 100 µM	–	> 100 µM	> 100 µM	> 100 µM	> 100 µM	–	–	–	–	–	–	–
O=C(c1ccc2ccccc2c1)c1c(C(F)(F)F)n([O-])c2cc(Cl)c(Cl)cc2[n+]1=O	1.77 µM	3.15 µM	1.46 µM	2.92 µM	1.59 µM	2.93 µM	2.04 µM	3.47 µM	1.58 µM	3 µM	2.84 µM	4.68 µM	2.94 µM	1.14 µM	–	–	1.49 µM	2.82 µM	1.96 µM	1.59 µM
COC(=O)C1OC(O[C@H]2CCC3(C)C(CCC4(C)C3CC=C3C5CC(C)(C)CCC5(C(=O)O)CC[C@]34C)C2(C)C)C(O)C(OC2OC(CO)C(O)C(O)C2O)C1O (some centres not stated)	7.22 µM	14.2 µM	6.18 µM	12.2 µM	–	–	6.59 µM	12.9 µM	–	–	13.4 µM	–	10.7 µM	2.17 µM	6.43 µM	11.8 µM	7.28 µM	13.5 µM	–	5.99 µM
O=C(C#Cc1c[nH]c(=O)[nH]c1=O)c1ccccc1Cl	–	36.1 µM	–	75.7 µM	–	30 µM	–	36.5 µM	–	32.1 µM	44.3 µM	36.3 µM	33.1 µM	–	–	–	–	–	–	–
CCOC(=O)C1(CC)CCCCC(=O)N1 (configuration not stated)	–	> 100 µM	–	–	–	–	–	> 100 µM	–	> 100 µM	–	–	> 100 µM	–	–	–	–	–	–	–
COC(=O)C(c1[nH]nc2ccccc12)C(C(=O)OC)c1[nH]nc2ccccc12 (configuration not stated)	–	> 100 µM	–	> 100 µM	–	44.9 µM	–	> 100 µM	–	> 100 µM	82.5 µM	> 100 µM	> 100 µM	–	–	–	–	–	–	–
